From patent US20050048508A1, “Trehalose receptor and method for detecting trehalose with the same” (KABUSHIKI KAISHA HAYASHIBARA SEIBUTSU KAGAKU KENKYUJO, priority 2002, published 2005)

Columns and labels:
[1] = test system: G protein α-subunits (α15 and α16/Z chimeric protein), no sweet taste receptor; assay: Intracellular calcium ion assay, 293 cells expressing G protein α-subunits without sweet taste receptor; assay type: cell-based, Mouse, Human; conditions: 293 cells: G protein α-subunits only, no T1R1/T1R2/T1R3; 0.67 ml of 1 M saccharide solution added to 2 ml cell suspension
Experimental: The coexpression vector for the G protein α-subunit α15 and the G protein α16/Z chimeric protein (hereinafter designated as “G protein α-subunits”) obtained in Example 1-3 was gene transferred to 293 cells, RCB 1637, a human embryonic kidney cell line, available from the Riken Bioresource Center, Ibaraki, Japan, by conventional lipofection. The gene transferred cells were suspended in Dulbecco's Modified Eagle's Medium (D-MEM) supplemented with 1 mg/L of “PUROMYCIN”, a trade mane of puromycin commercialized by Edge Biosystems, MD, USA, and 10% (v/v) of fetal calf serum to give a cell density of 2×10^6 cells/ml and cultured in a plastic petri dish for cell culture. […]
The captioned reactivity test was conducted according to a conventional intracellular calcium ion assay: 293 Cells prepared in Example 3, capable of coexpressing the G protein α-subunits and the sweet taste receptor(s), were cultured in a plastic petri dish for cell culture until reaching its confluent phase. […] Two milliliters of the resultant cell suspension was injected into a glass cuvette, commercialized by Hitachi, Ltd., Tokyo, Japan, and analyzed on “HITACHI 650-40”, a fluorescence spectrophotometer commercialized by Hitachi, Ltd., Tokyo, Japan. […]

[2] = molecular target: T1, T1R3 with G protein α-subunits (α15 and α16/Z chimeric protein) (Mus musculus, UniProt Q925D8, I706N); assay: Intracellular calcium ion assay, 293 cells coexpressing G protein α-subunits and T1R3 (trehalose receptor); assay type: cell-based
T1 construct: expressed in transfected cells; host or cells: 293 cells, RCB 1637 (human embryonic kidney)
T1 sequence (Q925D8 21-858 I706N): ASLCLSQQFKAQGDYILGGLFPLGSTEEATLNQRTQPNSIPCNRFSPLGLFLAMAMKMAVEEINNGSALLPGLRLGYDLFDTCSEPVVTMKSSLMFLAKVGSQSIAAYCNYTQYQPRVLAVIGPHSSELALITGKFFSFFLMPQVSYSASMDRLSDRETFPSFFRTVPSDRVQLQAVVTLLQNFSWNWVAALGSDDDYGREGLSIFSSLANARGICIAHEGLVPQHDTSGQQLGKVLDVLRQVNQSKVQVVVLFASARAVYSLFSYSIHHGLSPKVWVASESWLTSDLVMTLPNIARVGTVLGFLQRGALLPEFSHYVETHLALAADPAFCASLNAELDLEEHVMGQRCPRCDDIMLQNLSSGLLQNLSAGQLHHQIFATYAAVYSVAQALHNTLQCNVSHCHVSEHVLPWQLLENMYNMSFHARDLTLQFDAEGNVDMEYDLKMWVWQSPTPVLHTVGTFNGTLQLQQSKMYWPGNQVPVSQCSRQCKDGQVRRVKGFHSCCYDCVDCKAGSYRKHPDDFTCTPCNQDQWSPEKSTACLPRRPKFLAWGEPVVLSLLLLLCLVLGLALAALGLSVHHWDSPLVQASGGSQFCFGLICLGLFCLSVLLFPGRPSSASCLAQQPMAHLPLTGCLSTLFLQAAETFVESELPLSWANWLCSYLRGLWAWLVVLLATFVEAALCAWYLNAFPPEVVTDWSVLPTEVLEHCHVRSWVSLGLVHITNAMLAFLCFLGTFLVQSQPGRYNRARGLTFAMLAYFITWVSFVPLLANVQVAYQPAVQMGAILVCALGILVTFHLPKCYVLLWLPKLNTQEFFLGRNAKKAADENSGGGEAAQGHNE
Experimental: The coexpression vector for the G protein α-subunit α15 and the G protein α16/Z chimeric protein (hereinafter designated as “G protein α-subunits”) obtained in Example 1-3 was gene transferred to 293 cells, RCB 1637, a human embryonic kidney cell line, available from the Riken Bioresource Center, Ibaraki, Japan, by conventional lipofection. The gene transferred cells were suspended in Dulbecco's Modified Eagle's Medium (D-MEM) supplemented with 1 mg/L of “PUROMYCIN”, a trade mane of puromycin commercialized by Edge Biosystems, MD, USA, and 10% (v/v) of fetal calf serum to give a cell density of 2×10^6 cells/ml and cultured in a plastic petri dish for cell culture. After 10 to 14 days of incubation, a puromycin-resistant cell colony was collected and confirmed its production of the G protein α-subunit proteins with an index of their mRNA level by conventional RT-PCR. Thus, a cell line capable of expressing the G protein α-subunit proteins was established. To the cells were gene transferred an expression vector for the sweet taste receptor protein T1R1, T1R2, or T1R3 in Example 2-2; or a coexpression vector for a pair of T1R1 and T1R2, T1R1 and T1R3, or T1R2 and T1R3 by conventional lipofection. The resulting cells were suspended in D-MEM supplemented with 1 mg/L of “PUROMYCIN”, 500 mg/L of “GENETICIN”, and 10% (v/v) of fetal calf serum and cultured in a plastic petri dish for cell culture. After 10 to 14 days of incubation, a cell colony resistant to both of the above drugs was collected and confirmed that the transferred gene had been expressed intracellularly as expected by conventional RT-PCR at a mRNA level. Thus, a cell, which had coexpressed the desired G proteins and sweet taste receptors, was obtained. As a control, a cell, into which an expression vector with no G protein α-subunit protein gene or sweet taste receptor protein gene, was prepared and used.
The captioned reactivity test was conducted according to a conventional intracellular calcium ion assay: 293 Cells prepared in Example 3, capable of coexpressing the G protein α-subunits and the sweet taste receptor(s), were cultured in a plastic petri dish for cell culture until reaching its confluent phase. Thereafter, the cells were detached from the inner surface of the petri dish with a 0.05% (v/v) trypsin solution and a 0.53 mM EDTA solution, suspended in D-MEM supplemented with 10% (v/v) fetal calf serum to give a cell density of 1×10^6 cells/ml, and allowed to intake “FLUO-4. AM”, a reagent for detecting intracellular calcium ion commercialized by Molecular Probes Inc., Ore., USA, by adding to the cell suspension to give a final concentration of 2 μM and incubating the cells at 37 ° C. for 30 to 90 min. The resulting cells were washed with a buffer for detecting calcium ion, which contained 10 mM HEPES (pH 7.4), 130 mM sodium chloride, 5.4 mM potassium chloride, 2 mM calcium chloride, 1 mM magnesium chloride, 5.5 mM D-glucose, 0.1% (v/v) calf serum albumin, and 1 mM sodium pyruvate to remove the reagent remained extracellularly; suspended in a fresh preparation of the same buffer to give a cell density of 2.67 ×10^7 cells/ml; filtered with a membrane with a pore size of 100 μm mesh; and allowed to stand at 25° C. for 30 min. Two milliliters of the resultant cell suspension was injected into a glass cuvette, commercialized by Hitachi, Ltd., Tokyo, Japan, and analyzed on “HITACHI 650-40”, a fluorescence spectrophotometer commercialized by Hitachi, Ltd., Tokyo, Japan. […]

[3] = 293 cells: T1R3 + G protein α-subunits, 0.67 ml of 1 M saccharide solution added to 2 ml cell suspension, FLUO-4 AM
[4] = Table 4: sweet taste substances on cells coexpressing G protein α-subunits and T1R3, measured similarly as in Example 4

Structure (SMILES)	Influx of calcium ion [1]	Influx of calcium ion [2, 3]	Influx of calcium ion [2, 4]	Influx of calcium ion ([2]; 293 cells: T1R3 + G protein α-subunits, 0.67 ml of 1 M saccharide solution added to 2 ml cell suspension, FLUO-4 AM, listed as trehalose)
OC[C@H]1O[C@@](CO)(O[C@H]2O[C@H](CO)[C@@H](O)[C@H](O)[C@H]2O)[C@@H](O)[C@@H]1O [Sucrose, reference compound]	Negative	Negative	Negative	–
OC[C@H]1O[C@H](O[C@H]2O[C@H](CO)[C@@H](O)[C@H](O)[C@H]2O)[C@H](O)[C@@H](O)[C@@H]1O [Trehalose]	Negative	Positive	Positive	reacted
